The experiment deals with T1, human GPR40 (Homo sapiens, UniProt O14842).
T1 construct: expressed in transfected cells
The experiment in a line: Inositol Phosphate Turnover (IP1) Assay. The experiment is classed as cell-based. The conditions noted are these: HEK cells stably expressing human GPR40, 7500 cells per well, CisBio IP-One kit. As to the method: Human GPR40 stable cell-lines were generated in HEK cells. The expression plasmids were transfected using lipofectamine (Life Technologies) following manufacturer's instructions. Stable cell-lines were generated following drug selection and single cell cloning.
The assay was performed in 384-well format. HEK cells stably expressing human GPR40 were plated at 7500 cells per well in growth medium (DMEM/10% fetal calf serum). Cell plates were then incubated 16 hours at 37 degrees in a 5% CO2 incubator. Measurement of Inositol Phosphate Turnover (IP1) was performed using the CisBio IP-One kit (Part number 62IPAPEB). After the 16 hour incubation, the growth media was removed by centrifugation using the BlueWasher (AusWasher GUI Ver. v1.0.1.8) Protocol #21-“Light Dry” and 10 ul of stimulation buffer (prepared as described in the kit) was added to each well. In a separate plate, compounds were diluted in DMSO (200-fold over the final concentration in the assay well) and 50 nl was acoustically transferred to the appropriate well in the assay cell plate. The plates were then incubated for 60 minutes at 37 degrees in a 5% CO2 incubator. 10 ul of detection buffer (also prepared as described in the IP-One kit) was added to each well and the plates were incubated at room temperature for 60 minutes in the dark. The plates were then read in a Perkin Elmer EnVision or equivalent reader able to measure FRET. Fluorescent ratio of emission at 665 and 620 nm was then converted to IP1 concentration by back calculating from an IP1 standard curve prepared at the time of the assay. Data was normalized to % activity using a reference compound and EC50s determined using a standard 4-parameter fit.

T1 sequence (O14842 whole entry): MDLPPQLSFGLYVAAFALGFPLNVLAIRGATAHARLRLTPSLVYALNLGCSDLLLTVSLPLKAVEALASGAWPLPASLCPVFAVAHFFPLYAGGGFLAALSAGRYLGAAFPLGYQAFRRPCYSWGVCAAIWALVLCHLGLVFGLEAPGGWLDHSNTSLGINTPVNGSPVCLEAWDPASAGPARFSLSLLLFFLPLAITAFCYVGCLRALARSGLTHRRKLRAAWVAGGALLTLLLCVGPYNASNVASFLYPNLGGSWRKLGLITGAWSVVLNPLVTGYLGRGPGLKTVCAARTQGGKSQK

In turn, `C[C@H](C(=O)O)[C@H](c1ccc2c(c1)OC(CC1CCN([C@H](C)c3cc(C(F)(F)F)ccc3C(F)(F)F)CC1)CC2)C1CC1` (mixture of isomers) [Example 9, (2S,3R)-3-((RS)-2-((1-((R)-1-(2,5-bis(trifluoromethyl)phenyl)ethyl)piperidin-4-yl)-methyl)chroman-7-yl)-3-cyclopropyl-2-methylpropanoic Acid] came in with an EC50 of 63.7 nM. `CC(c1cc(F)ccc1C(F)(F)F)N1CC2CC1CC2C1CCc2ccc([C@H](C3CC3)[C@H](C)C(=O)O)cc2O1` (mixture of isomers) [Example 39, (2S,3R)-3-cyclopropyl-3-((R or S)-2-((R or S,R or S)-2-((RS)-1-(5-fluoro-2-(trifluoromethyl)-phenyl)ethyl)-2-azabicyclo-[2.2.1]heptan-5-yl)chroman-7-yl)-2-methylpropanoic acid] displayed an EC50 of 44.1 nM. Compound `C[C@H](C(=O)O)[C@H](c1ccc2c(c1)OC(CCN(C)Cc1cc(C(F)(F)F)ccc1C(F)(F)F)CC2)C1CC1` (mixture of isomers) [Example 41, (2S,3R)-3-(2-(2-((2,5-bis-(trifluoromethyl)benzyl)(methyl)amino)ethyl)chroman-7-yl)-3-cyclopropyl-2-methylpropanic acid] returned an EC50 of 8.72 nM. For the compound `C[C@H](C(=O)O)[C@H](c1ccc2c(c1)OC(CC1CCN([C@@H](C)c3cc(C(F)(F)F)ccc3C(F)(F)F)CC1)CC2)C1CC1` (mixture of isomers) [Example 12, (2S,3R)-3-((RS)-2-((1-((S)-1-(2,5-bis(trifluoro-methyl)phenyl)ethyl)piperi-din-4-yl)methyl)-chroman-7-yl)-3-cyclopropyl-2-methyl-propanoic acid], the EC50 amounted to 22.3 nM. With `C[C@H](C(=O)O)[C@H](c1ccc2c(c1)OC(C1[C@@H]3CC[C@H]1CN([C@H](C)c1cc(C(F)(F)F)ccc1C(F)(F)F)C3)CC2)C1CC1` (mixture of isomers) [Example 22, (2S,3R)-3-(2-((1R,5S)-3-((R)-1-(2,5-bis(trifluoromethyl)phenyl)ethyl)-3-azabicyclo[3.2.1]octan-8-yl)chroman-7-yl)-3-cyclopropyl-2-methylpropanoic Acid] the figure was 45.6 nM; with `C[C@H](C(=O)O)[C@H](c1ccc2c(c1)OC(C1[C@@H]3CC[C@H]1CN([C@H](C)c1cc(C(F)(F)F)ccc1C(F)(F)F)C3)CC2)C1CC1` (mixture of isomers) [Example 23, (2S,3R)-3-(2-((1R,5S)-3-((R)-1-(2,5-bis(trifluoromethyl)phenyl)ethyl)-3-azabicyclo[3.2.1]octan-8-yl)chroman-7-yl)-3-cyclopropyl-2-methylpropanoic Acid], 49.8 nM; with `C[C@H](C(=O)O)[C@H](c1ccc2c(c1)OC(C1CC3CCCC(C1)N3[C@H](C)c1cc(C(F)(F)F)ccc1C(F)(F)F)CC2)C1CC1` (mixture of isomers) [Example 32, (2S,3R)-3-((RS)-2-((1R,3RS,5S)-9-((R)-1-(2,5-bis(trifluoromethyl)phenyl)ethyl)-9-azabicyclo[3.3.1]nonan-3-yl)chroman-7-yl)-3-cyclopropyl-2-methylpropanoic Acid], 171 nM. The figure for `C[C@H](C(=O)O)[C@H](c1ccc2c(c1)OC(C1CC3CCCC(C1)N3[C@@H](C)c1cc(C(F)(F)F)ccc1C(F)(F)F)CC2)C1CC1` (mixture of isomers) [Example 33, (2S,3R)-3-((RS)-2-((1R,3RS,5S)-9-((S)-1-(2,5-bis(trifluoromethyl)-phenyl)ethyl)-9-aza-bicyclo[3.3.1]-nonan-3-yl)chroman-7-yl)-3-cyclopropyl-2-methyl-propanoic acid] is 750 nM. The figure for `C[C@H](C(=O)O)[C@H](c1ccc2c(c1)OC(C1[C@@H]3COC[C@H]1CN([C@@H](C)c1cc(F)ccc1C(F)(F)F)C3)CC2)C1CC1` (single isomer, unassigned) [Example 7] is 11.2 nM; for `C[C@H](C(=O)O)[C@H](c1ccc2c(c1)OC(C1[C@@H]3COC[C@H]1CN([C@@H](C)c1cc(F)ccc1C(F)(F)F)C3)CC2)C1CC1` (single isomer, unassigned) [Example 8] it is 11.2 nM; for `C[C@H](C(=O)O)[C@H](c1ccc2c(c1)OC(CC1CCN([C@H](C)c3cc(C(F)(F)F)ccc3C(F)(F)F)CC1)CC2)C1CC1` (single isomer, unassigned) [Example 10, (2S,3R)-3-((R or S)-2-((1-((R)-1-(2,5-bis(trifluoromethyl)phenyl)ethyl)piperidin-4-yl)-methyl)chroman-7-yl)-3-cyclopropyl-2-methylpropanoic Acid] it is 29.3 nM. `C[C@H](C(=O)O)[C@H](c1ccc2c(c1)OC(CC1CCN([C@H](C)c3cc(C(F)(F)F)ccc3C(F)(F)F)CC1)CC2)C1CC1` (single isomer, unassigned) [Example 11, (2S,3R)-3-((S or R)-2-((1-((R)-1-(2,5-bis(trifluoromethyl)phenyl)ethyl)piperidin-4-yl)methyl)chroman-7-yl)-3-cyclopropyl-2-methylpropanoic Acid] gave an EC50 of 14.1 nM. With `C[C@H](C(=O)O)[C@H](c1ccc2c(c1)OC(C1CC3CC1CN3[C@H](C)c1cc(F)ccc1C(F)(F)F)CC2)C1CC1` (single isomer, unassigned) [Example 20] the figure was 13.4 nM; with `C[C@H](C(=O)O)[C@H](c1ccc2c(c1)OC(C1CC3CC1CN3[C@H](C)c1cc(F)ccc1C(F)(F)F)CC2)C1CC1` (single isomer, unassigned) [Example 21], 3.14 nM.

Take `C[C@H](C(=O)O)[C@H](c1ccc2c(c1)OC(C1[C@@H]3CC[C@@H]1CN([C@@H](C)c1cc(C(F)(F)F)ccc1C(F)(F)F)C3)CC2)C1CC1` (single isomer, unassigned) [Example 24]: the EC50 came out at 9.66 nM. In the case of `C[C@H](C(=O)O)[C@H](c1ccc2c(c1)OC(C1[C@@H]3CC[C@@H]1CN([C@@H](C)c1cc(C(F)(F)F)ccc1C(F)(F)F)C3)CC2)C1CC1` (single isomer, unassigned) [Example 25], the EC50 was found to be 67.3 nM. With `C[C@H](C(=O)O)[C@H](c1ccc2c(c1)OC(C1[C@@H]3CC[C@H]1CN([C@@H](C)c1cc(F)ccc1C(F)(F)F)C3)CC2)C1CC1` (single isomer, unassigned) [Example 26] the figure was 9.68 nM. With `C[C@H](C(=O)O)[C@H](c1ccc2c(c1)OC(C1[C@@H]3CC[C@@H]1CN([C@@H](C)c1cc(F)ccc1C(F)(F)F)C3)CC2)C1CC1` (single isomer, unassigned) [Example 27, (2S,3R)-3-cyclopropyl-3-((2R or 2S)-2-((1R,5S)-3-((S)-1-(5-fluoro-2-(trifluoromethyl)phenyl)ethyl)-3-azabicyclo[3.2.1]-octan-8-yl)chroman-7-yl)-2-methylpropanoic acid] the figure was 20.2 nM. As for `C[C@H](C(=O)O)[C@H](c1ccc2c(c1)OC(C1[C@@H]3CC[C@@H]1CN([C@@H](C)c1cc(F)ccc1C(F)(F)F)C3)CC2)C1CC1` (single isomer, unassigned) [Example 28, (2S,3R)-3-cyclopropyl-3-((2R or 2S)-2-((1R,5S)-3-((S)-1-(5-fluoro-2-(trifluoromethyl)phenyl)ethyl)-3-azabicyclo[3.2.1]-octan-8-yl)chroman-7-yl)-2-methylpropanoic acid], the EC50 turned out to be 28.7 nM. In turn, `C[C@H](C(=O)O)[C@H](c1ccc2c(c1)OC(C1[C@@H]3CC[C@H]1CN([C@@H](C)c1cc(F)ccc1C(F)(F)F)C3)CC2)C1CC1` (single isomer, unassigned) [Example 29] gave an EC50 of 72.8 nM.

The EC50 is the concentration giving half of the maximal effect. Low readings indicate a more potent agent, high ones a less potent agent.

For the origin of these results see patent US11072602B2, “Antidiabetic heterocyclic compounds” (Merck Sharp & Dohme Corp., priority 2016, dated 2021).
